# Data: US20250308265A1, “METHODS AND SYSTEMS FOR CHARACTERIZING MORPHODYNAMIC PROFILES OF OBJECTS” (The Chancellor, Masters and Scholars of the University of …, priority 2022, published 2025)
# Where two headings read alike, the source gives them in different places.
# B1: WNT3A: a potent inducer of WNT signaling, added to the ENR medium (protein, UniProt P56704 19-352, looked up)
# Protein Wnt-3a: SYPIWWSLAVGPQYSSLGSQPILCASIPGLVPKQLRFCRNYVEIMPSVAEGIKIGIQECQHQFRGRRWNCTTVHDSLAIFGPVLDKATRESAFVHAIASAGVAFAVTRSCAEGTAAICGCSSRHQGSPGKGWKWGGCSEDIEFGGMVSREFADARENRPDARSAMNRHNNEAGRQAIASHMHLKCKCHGLSGSCEVKTCWWSQPDFRAIGDFLKDKYDSASEMVVEKHRESRGWVETLRPRYTYFKVPTERDLVYYEASPNFCEPNPETGSFGTRDRTCNVSSHGIDGCDLLCCGRGHNARAERRREKCRCVFHWCCYVSCQECTRVYDVHTCK
# Columns and labels:
# [1] = system: normal patient-derived duodenal organoids; test: Chemotherapy drug toxicity screen with human duodenum organoids, label-free timelapse imaging analysed by SPOT; conditions: for phenotype cluster frequency over time (stacked barplots): 5 days
# Procedure: Organoids were plated onto 96 well plates as follows. Using ice-cold PBS, the organoids were retrieved from the Matrigel and briefly microcentrifuged. To aid organoid dissociation, the pellet was vigorously resuspended in Trypsin and incubated at 37° C. for 10 min to ensure a high degree of dissociation. The organoid fragments were then briefly microcentrifuged and resuspended in 200 μL of Matrigel. The resuspended organoids were then kept on ice to prevent gelation of the Matrigel. Then, 2 μL of the organoid suspension was seeded inside each well. During this process, the organoid-Matrigel mix was resuspended every 12 wells to ensure an even mix. The Matrigel was allowed to gelate at room temperature for 5 min. Once the Matrigel solidified, 100 μL of human organoid medium, pre-warmed at 37° C. to prevent the detachment of the Matrigel, was then overlaid and replaced every 2 days. Once the organoids had grown for 6 days inside the 96-well plate, the medium was removed by inversion and washed with pre-warmed PBS at 37° C. After removing the PBS by inversion, the wells were filled with 100 μL of human organoid medium (HOM) with a titration of chemotherapy drugs. […] These concentrations were based on the previously published screening concentrations (van de Wetering, M. et al. Cell 161, 933-945 (2015)). All drugs were solubilized and diluted with DMSO. The different conditions were filmed on a Nikon microscope for 120 h at a frequency of 1 image per hour with a 2× objective.
# Human duodenum organoids were harvested and dissociated into single cells following the passaging procedure described above. Cell pellets were resuspended in 500 μL of PBS. Cells were filtered through the cell strainer (70 μm) and counted with the automated cell counter (BIO-RAD). The appropriate cell dilutions were made in GFR Matrigel. Then, the cells were seeded in a pre-warmed 96-well black tissue culture-treated (TC-treated) sterile microplate (PerkinElmer), and plates were incubated for 10 min in a cell culture incubator at 37° C. and 5% CO2 to solidify the Matrigel. Human duodenum organoid culture media (HOM, Table 9) was added to each well (200 μL) and refreshed every other day. For WNT experiments, before performing timelapse video collection, the HOM media was changed to ENR (EGF, Noggin, R-spondin only) for the ENR imaging conditions. Specifically, group HOM organoids were cultured in HOM culture medium for 14 days. Group ENR+WNT3A (day 3) organoids were under ENR treatment for 3 days and then ENR+Wnt3A for 11 days. Group ENR+WNT3A (day 6) organoids were under ENR treatment for 6 days and then ENR+Wnt3a for the next 8 days. Group ENR+Wnt3A (day 9) organoids were under ENR treatment for 9 days and then under ENR+Wnt3A treatment for 5 days. Group ENR organoids were under ENR treatment for 14 days. All images were acquired using a Nikon TE 2000-E Eclipse inverted microscope, with a 10×/0.3 NA Plan Fluor Ph1 objective. The system was maintained at 37° C. in the presence of 5% CO2. Z-stack images 1000 μm in depth were acquired at 100 μm intervals (11 steps per acquisition) approximately every 60 min for 5 days (chemotherapy drug screen) and 14 days (WNT addition experiments).
# Multicellular structures, such as organoids, have emerged as attractive experimental models. Further, the complex spatiotemporal dynamics of organoids are underlined by the cells' genetic makeup, cell/cell interactions, and the constituent cells' responses to environmental perturbations. SPOT's potential was therefore tested to measure the spatiotemporal dynamics of organoids using normal patient-derived duodenal organoids grown in a 96-well plate and imaged label-free. The entire SPOT workflow was applied to measure organoid response to eight chemotherapy drugs at three different concentrations. 60-100 organoids were seeded per well, and all organoids were filmed every hour for 5 days (stage 1).
# human duodenum organoids [2] = test: Delayed WNT3A restoration to ENR-cultured human duodenum organoids, timelapse imaging analysed by SPOT; assay type: cell-based
# Procedure: Cell pellets were resuspended in 500 μL of PBS. […] The appropriate cell dilutions were made in GFR Matrigel.
# The observed flattening phenotype is visually reminiscent of Apc^min/+ murine colon organoids. However, the role of WNT on the morphodynamic changes of human organoids was unexpected. Whereas Apc^min/+ organoids should have high WNT signaling, ENR medium lacks WNT. To test the direct impact of WNT on the morphological changes of human duodenum organoids, WNT3A, a potent inducer of WNT signaling, was added to the ENR medium at day 3, 6, and 9 after the initial transfer of human duodenum organoids to ENR. […] To quantify the impact of WNT3A restoration, all organoids were grown in 96-well plates for 7 days, and live-cell images were captured every hour for the next 14 days (FIG. 5c). The spatiotemporal dynamics of a library of >500,000 segmented organoid instances over all timepoints and videos were analyzed by SPOT in the same manner as mouse colon organoids, and the organoids were subsequently classified into one of 7 phenotype clusters. Quantifying the expression of representative SAM features, as expected, organoids cultured in HOM were large and spherical, shown by enriched distribution of yellow cluster 6.
# human duodenum organoids [3] = test: scRNA-seq of human duodenum organoids (HOM, ENR, ENR+WNT3A); assay type: cell-based; conditions: restoring WNT3A
# Text: Organoids were individually seeded onto a 24-well plate and cultured for 7 days before treatment as described above.
# For scRNA-seq, Group HOM was collected after the initial 7 days' culture before further treatment, that is day 0 of the timelapse acquisition. […] Group ENR organoids were under ENR treatment for a total of 3, 6, and 9 days, respectively, then collected. After being harvested, the organoids were processed in the same manner as for murine organoids.
# To understand the molecular basis of WNT depletion-induced morphodynamic changes, scRNA-seq was also performed on the human duodenum organoids cultured under conditions and timescales identical to those used for the SPOT analysis. In total, 8763 single cell transcriptomes were generated. […] Examining the expression of WNT, YAP targets, fetal and RSC signatures in organoid-derived cells as a function of the time of WNT3A rescue, it is evident that there is an inverse association between high WNT and high YAP target-expressing cells. Also, the kinetics of RSC signature expression levels coincide with the extent of phenotypic changes detected by SPOT. Thus, WNT-deprived ENR medium induces RSCs that lead to the development of morphologically irregular and flattened organoids.
molecule,measurement,setting,value
"CCc1c2c(nc3ccc(OC(=O)N4CCC(N5CCCCC5)CC4)cc13)-c1cc3c(c(=O)n1C2)COC(=O)[C@]3(O)CC [irinotecan, Irinotecan]",HMM cluster transition pattern,[1],loses the autoregulatory loop of cluster 2
same,temporal phenotype trajectory,[1],opposing trajectory from top to bottom
O=c1[nH]cc(F)c(=O)[nH]1 [5-fluorouracil],relative toxicity,[1],lower relative toxicity
same,temporal phenotype trajectory,[1],milder toxicity
same,phenotype cluster frequency over time (stacked barplots),[1],approximately maintain the fraction of the cluster 2 large spherical organoid phenotype
"O=C1[O][Pt]2([NH][C@@H]3CCCC[C@H]3[NH]2)[O]C1=O [oxaliplatin, Oxaliplatin]",impact on organoid morphology (UMAP density heatmaps),"[1]; all three concentrations, highest: cisplatin 6, oxaliplatin 20, mitomycin C 0.03, 5-fluorouracil 20, gefitinib 0.5, irinotecan 5, docetaxel 0.0125, epirubicin 4.5 μM, vs DMSO control",limited impact on organoid morphology
same,temporal phenotype trajectory,[1]; compared with DMSO trajectory,Predominant organoid growth
same,relative toxicity,"[1]; final timepoints, maximum concentration, 5 days filming",lower relative toxicity
"COc1cccc2c1C(=O)c1c(O)c3c(c(O)c1C2=O)C[C@@](O)(C(=O)CO)C[C@@H]3O[C@H]1C[C@H](N)[C@@H](O)[C@H](C)O1 [epirubicin, Epirubicin]",HMM cluster transition pattern,[1],conserved cluster transition pattern
same,temporal phenotype trajectory,[1],opposing trajectory from top to bottom
"COc1cc2ncnc(Nc3ccc(F)c(Cl)c3)c2cc1OCCCN1CCOCC1 [gefitinib, Gefitinib]",relative toxicity,[1],lower relative toxicity
same,temporal phenotype trajectory,[1],milder toxicity
same,phenotype cluster frequency over time (stacked barplots),[1],approximately maintain the fraction of the cluster 2 large spherical organoid phenotype
"CC(=O)O[C@@]12CO[C@@H]1C[C@H](O)[C@@]1(C)C(=O)[C@H](O)C3=C(C)[C@@H](OC(=O)[C@H](O)[C@@H](NC(=O)OC(C)(C)C)c4ccccc4)C[C@@](O)([C@@H](OC(=O)c4ccccc4)[C@H]21)C3(C)C [docetaxel, Docetaxel]",HMM cluster transition pattern,[1],conserved cluster transition pattern
B1,impact on phenotype rescue (proportion of irregularly shaped to spherical organoids),human duodenum organoids [2]; WNT3A restored on day 3,biggest impact
same,organoid growth (cluster 6),human duodenum organoids [2]; WNT3A restored on day 3,increased
same,percentage of irregularly shaped organoids (cluster 7),human duodenum organoids [2]; WNT3A restored on day 3,substantially reduced
same,temporal phenotype trajectory,human duodenum organoids [2]; WNT3A restored on day 3,close overlap between day 3 WNT3A restoration and HOM conditions
same,HMM cluster transition graph,human duodenum organoids [2]; WNT3A restored on day 6,best reflects the ENR-only condition
same,impact on phenotype rescue (proportion of irregularly shaped to spherical organoids),human duodenum organoids [2]; WNT3A restored on day 6,little impact
same,HMM cluster transition graph,human duodenum organoids [2]; WNT3A restored on day 9,"introduces two new transitions, cluster 5-to-3 and cluster 4-to-2"
same,impact on phenotype rescue (proportion of irregularly shaped to spherical organoids),human duodenum organoids [2]; WNT3A restored on day 9,minimal impact
same,formation of morphologically flattened irregular organoids,human duodenum organoids [2]; WNT3A restored to ENR medium at day 3,largely prevented
same,induction of RSCs leading to morphologically irregular and flattened organoids in WNT-deprived ENR medium,human duodenum organoids [3],can be prevented
